Experimental data published in PubChem BioAssay (NCI).
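Dose response: 5 concentrations. Exposure: 48 h. Format: 96-well plates. Endpoint: linear interpolation; highest concentration if not reached. GI50 is the concentration that inhibits growth by half. TGI: concentration producing complete growth inhibition.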

What was measured:
Experiment in all cases: DTP human tumour cell line panel, 48 h
COLO 205 colon = test system: COLO 205 colon
EKVX NSCLC = test system: EKVX NSCLC
HCT-15 colon = test system: HCT-15 colon
MCF7 breast = test system: MCF7 breast
NCI/ADR-RES ovarian = test system: NCI/ADR-RES ovarian
SF-295 CNS = test system: SF-295 CNS
SK-MEL-28 melanoma = test system: SK-MEL-28 melanoma
SK-MEL-5 melanoma = test system: SK-MEL-5 melanoma
TK-10 renal = test system: TK-10 renal
SR leukemia = test system: SR leukemia

## CC(C)c1cccc(C(C)C)c1NC(=O)/C(CC(=O)CC(c1ccccc1)c1c(O)c2ccccc2oc1=O)=N/O (stereo not given)
COLO 205 colon
  TGI: > 100 µM
EKVX NSCLC
  TGI: > 100 µM
HCT-15 colon
  TGI: > 100 µM
MCF7 breast
  TGI: > 100 µM
NCI/ADR-RES ovarian
  TGI: > 100 µM
SF-295 CNS
  TGI: > 100 µM
SK-MEL-28 melanoma
  TGI: > 100 µM
SK-MEL-5 melanoma
  TGI: > 100 µM
TK-10 renal
  TGI: > 100 µM

## CS(=O)(=O)CSCSSCS(C)(=O)=O
COLO 205 colon
  TGI: 38 µM
EKVX NSCLC
  TGI: > 100 µM
HCT-15 colon
  TGI: > 84.8 µM
SF-295 CNS
  TGI: 55.7 µM
SK-MEL-28 melanoma
  TGI: 66.4 µM
SK-MEL-5 melanoma
  TGI: > 100 µM
SR leukemia
  TGI: > 91.8 µM
TK-10 renal
  TGI: > 100 µM

## COc1cc(C(=O)Oc2ccc3c(c2)OCO3)cc(OC)c1OC
COLO 205 colon
  TGI: > 100 µM
HCT-15 colon
  TGI: > 100 µM
MCF7 breast
  TGI: > 100 µM
NCI/ADR-RES ovarian
  TGI: > 100 µM
SF-295 CNS
  TGI: > 100 µM
SK-MEL-28 melanoma
  TGI: > 100 µM
SK-MEL-5 melanoma
  TGI: > 100 µM
SR leukemia
  TGI: > 100 µM
TK-10 renal
  TGI: > 100 µM

## Cc1cc(C)nc(NS(=O)(=O)c2ccc(Nc3c4ccccc4nc4c(C(=O)N5CCN(CCOS(C)(=O)=O)CC5)cccc34)cc2)n1
COLO 205 colon
  TGI: > 100 µM
HCT-15 colon
  TGI: > 100 µM
SF-295 CNS
  TGI: > 100 µM
SK-MEL-28 melanoma
  TGI: > 100 µM
SK-MEL-5 melanoma
  TGI: > 100 µM
TK-10 renal
  TGI: > 100 µM

## CCOC(=O)C1(C#N)C(c2ccccc2)CC(O)(c2ccc(Cl)cc2)C(C(=O)c2ccc(Cl)cc2)C1c1ccccc1 (stereo not given)
COLO 205 colon
  TGI: > 100 µM
EKVX NSCLC
  TGI: > 100 µM
HCT-15 colon
  TGI: > 100 µM
SF-295 CNS
  TGI: > 100 µM
SK-MEL-28 melanoma
  TGI: > 100 µM
SK-MEL-5 melanoma
  TGI: > 100 µM
SR leukemia
  TGI: > 100 µM
TK-10 renal
  TGI: > 100 µM

## CC1(C)OCC2OC3([C@@H]4OC(C)(C)O[C@H]4CO)OC(C)(C)OC3C2O1 (stereo not given in full)
COLO 205 colon
  TGI: > 100 µM
EKVX NSCLC
  TGI: > 100 µM
HCT-15 colon
  TGI: > 100 µM
MCF7 breast
  TGI: > 100 µM
NCI/ADR-RES ovarian
  TGI: > 100 µM
SF-295 CNS
  TGI: > 100 µM
SK-MEL-28 melanoma
  TGI: > 100 µM
SK-MEL-5 melanoma
  TGI: > 100 µM
SR leukemia
  TGI: > 100 µM

## Nc1nc(Cl)cc(NCC2(O)CC2)n1
EKVX NSCLC
  TGI: > 100 µM
HCT-15 colon
  TGI: > 100 µM
MCF7 breast
  TGI: > 100 µM
NCI/ADR-RES ovarian
  TGI: > 100 µM
SF-295 CNS
  TGI: > 100 µM
SK-MEL-28 melanoma
  TGI: > 100 µM
SK-MEL-5 melanoma
  TGI: > 100 µM
SR leukemia
  TGI: > 100 µM
TK-10 renal
  TGI: > 100 µM

## COc1ccc(-c2c3c(n(C4OC(CO)C(O)C(O)C4O)c(=S)c2C#N)CCC3)cc1 (stereo not given)
COLO 205 colon
  TGI: > 100 µM
HCT-15 colon
  TGI: > 100 µM
MCF7 breast
  TGI: > 100 µM
NCI/ADR-RES ovarian
  TGI: > 100 µM
SF-295 CNS
  TGI: > 100 µM
SK-MEL-28 melanoma
  TGI: > 100 µM
SK-MEL-5 melanoma
  TGI: 38.8 µM
SR leukemia
  TGI: > 100 µM
TK-10 renal
  TGI: > 100 µM

## O=C(N/N=C(/CCN1CCCC1)CC(c1ccccc1)c1c(O)c2ccccc2oc1=O)c1ccncc1 (stereo not given)
EKVX NSCLC
  TGI: > 100 µM
HCT-15 colon
  TGI: > 100 µM
SF-295 CNS
  TGI: > 100 µM
SK-MEL-5 melanoma
  TGI: > 100 µM
SR leukemia
  TGI: 48.6 µM
TK-10 renal
  TGI: > 100 µM

## O=C(O)c1cccc2cccc(-c3cccc4cccc(C(=O)O)c34)c12
COLO 205 colon
  TGI: > 100 µM
EKVX NSCLC
  TGI: > 100 µM
HCT-15 colon
  TGI: > 100 µM
MCF7 breast
  TGI: > 100 µM
NCI/ADR-RES ovarian
  TGI: > 100 µM
SF-295 CNS
  TGI: > 100 µM
SK-MEL-28 melanoma
  TGI: > 100 µM
SK-MEL-5 melanoma
  TGI: > 100 µM
TK-10 renal
  TGI: > 100 µM

## CC(C)N1CC2CC(CN(C(=O)c3ccccc3)C2)C1
COLO 205 colon
  TGI: > 100 µM
EKVX NSCLC
  TGI: > 100 µM
HCT-15 colon
  TGI: > 100 µM
SF-295 CNS
  TGI: > 100 µM
SK-MEL-28 melanoma
  TGI: > 100 µM
SK-MEL-5 melanoma
  TGI: > 100 µM
TK-10 renal
  TGI: > 100 µM

## COC(=O)C1=C(C(=O)OC)SC(=CC#CC=C2SC(C(=O)OC)=C(C(=O)OC)S2)S1
COLO 205 colon
  TGI: > 54.9 µM
EKVX NSCLC
  TGI: > 100 µM
HCT-15 colon
  TGI: > 45.1 µM
SF-295 CNS
  TGI: 11.8 µM
SK-MEL-28 melanoma
  TGI: > 63.2 µM
SK-MEL-5 melanoma
  TGI: > 86.5 µM
SR leukemia
  TGI: > 100 µM
TK-10 renal
  TGI: 23.9 µM

## CC1CCC2(NC1)OC1CC3C4CC=C5CC(OC6OC(CO)C(OC7OC(C)C(O)C(O)C7O)C(O)C6OC6OC(C)C(O)C(O)C6O)CCC5(C)C4CCC3(C)C1C2C (stereo not given)
COLO 205 colon
  TGI: 35.4 µM
EKVX NSCLC
  TGI: 6.4 µM
HCT-15 colon
  TGI: 16.9 µM
MCF7 breast
  TGI: 4.88 µM
SF-295 CNS
  TGI: 3.94 µM
SK-MEL-28 melanoma
  TGI: 4.41 µM
SK-MEL-5 melanoma
  TGI: 33.9 µM
SR leukemia
  TGI: 27.8 µM
TK-10 renal
  TGI: 15.1 µM

## Cc1cc(S(=O)(=O)Nc2n[nH]c(-c3ccccn3)n2)c(S)cc1Cl
COLO 205 colon
  TGI: 90.6 µM
EKVX NSCLC
  TGI: 92 µM
HCT-15 colon
  TGI: 20.9 µM
MCF7 breast
  TGI: > 100 µM
NCI/ADR-RES ovarian
  TGI: 35.3 µM
SK-MEL-28 melanoma
  TGI: > 100 µM
SK-MEL-5 melanoma
  TGI: 24.3 µM
SR leukemia
  TGI: > 100 µM
TK-10 renal
  TGI: 23.9 µM

## O=C1C=CC=C/C1=C1\N=C(c2ccccc2OCC(=O)c2ccccc2)SS1
EKVX NSCLC
  TGI: > 100 µM
HCT-15 colon
  TGI: > 100 µM
MCF7 breast
  TGI: > 100 µM
NCI/ADR-RES ovarian
  TGI: > 100 µM
SF-295 CNS
  TGI: > 100 µM
SK-MEL-28 melanoma
  TGI: > 100 µM
TK-10 renal
  TGI: > 100 µM

## C=C1C(OC2O[C@@H]3O[C@@]4(C)CC[C@H]5[C@H](C)CC[C@@H](C2=C)[C@@]35O4)O[C@@H]2O[C@@]3(C)CC[C@H]4[C@H](C)CC[C@@H]1[C@@]24O3 (stereo not given in full)
COLO 205 colon
  TGI: > 50 µM
EKVX NSCLC
  TGI: > 50 µM
HCT-15 colon
  TGI: > 50 µM
MCF7 breast
  TGI: > 50 µM
SF-295 CNS
  TGI: > 50 µM
SK-MEL-28 melanoma
  TGI: > 50 µM
SK-MEL-5 melanoma
  TGI: > 50 µM
SR leukemia
  TGI: > 50 µM
TK-10 renal
  TGI: > 50 µM

## CC1C(NNc2ccccc2)Oc2cc3c(cc2C1c1ccccc1O)OCO3 (stereo not given)
COLO 205 colon
  TGI: 24.5 µM
EKVX NSCLC
  TGI: 23.3 µM
HCT-15 colon
  TGI: 15.2 µM
MCF7 breast
  TGI: 16.8 µM
SF-295 CNS
  TGI: 3.49 µM
SK-MEL-28 melanoma
  TGI: 26.6 µM
SK-MEL-5 melanoma
  TGI: 24.1 µM
SR leukemia
  TGI: 11.6 µM
TK-10 renal
  TGI: 18.3 µM

## Cc1cc(C)c2c(=O)cc(-c3cccc(F)c3)[nH]c2n1
COLO 205 colon
  TGI: 0.354 µM
EKVX NSCLC
  TGI: > 100 µM
HCT-15 colon
  TGI: > 38.2 µM
MCF7 breast
  TGI: 2.16 µM
SF-295 CNS
  TGI: 0.199 µM
SK-MEL-28 melanoma
  TGI: 92.9 µM
SK-MEL-5 melanoma
  TGI: 6.38 µM
SR leukemia
  TGI: 0.122 µM
TK-10 renal
  TGI: > 100 µM

## CN(C)c1ccc(/C=C(\NC(=O)c2ccccc2)c2nn(C)c(=O)o2)cc1
COLO 205 colon
  TGI: > 100 µM
EKVX NSCLC
  TGI: > 100 µM
HCT-15 colon
  TGI: > 100 µM
MCF7 breast
  TGI: > 100 µM
NCI/ADR-RES ovarian
  TGI: 65.6 µM
SF-295 CNS
  TGI: > 100 µM
SK-MEL-28 melanoma
  TGI: > 100 µM
SK-MEL-5 melanoma
  TGI: 93.5 µM
TK-10 renal
  TGI: > 100 µM

## COC(=O)[C@@H]1CCCCC[C@H]2C(CO)=C(C)C(=O)C12 (stereo not given in full)
COLO 205 colon
  TGI: > 100 µM
EKVX NSCLC
  TGI: > 100 µM
HCT-15 colon
  TGI: > 100 µM
SF-295 CNS
  TGI: > 100 µM
SK-MEL-28 melanoma
  TGI: > 100 µM
SK-MEL-5 melanoma
  TGI: > 100 µM
SR leukemia
  TGI: > 100 µM
TK-10 renal
  TGI: > 100 µM

## CCCCOc1ccc(OCCCCCCCCCC[N+](C)(C)C)cc1
COLO 205 colon
  TGI: 2.68 µM
EKVX NSCLC
  TGI: 46 µM
HCT-15 colon
  TGI: 30.5 µM
MCF7 breast
  TGI: 14.8 µM
NCI/ADR-RES ovarian
  TGI: > 100 µM
SF-295 CNS
  TGI: 19.9 µM
SK-MEL-28 melanoma
  TGI: 18 µM
SK-MEL-5 melanoma
  TGI: 3.81 µM

## CCc1c(CNc2ccc(C(=O)NC(CC(=O)O)C(=O)O)cc2)ccc2nc(N)nc(N)c12 (stereo not given)
EKVX NSCLC
  GI50: 558 µM
  TGI: > 1000 µM
HCT-15 colon
  TGI: > 1000 µM
MCF7 breast
  TGI: > 1000 µM
NCI/ADR-RES ovarian
  TGI: > 1000 µM
SF-295 CNS
  TGI: > 1000 µM
SK-MEL-28 melanoma
  GI50: > 1 mM
  TGI: > 1000 µM
SK-MEL-5 melanoma
  TGI: > 1000 µM
SR leukemia
  TGI: > 1000 µM
TK-10 renal
  GI50: > 1 mM
  TGI: > 1000 µM

## O=c1nc2c(c(-c3ccc(Br)cc3)[nH]1)COC/C2=C\c1ccc(Br)cc1
COLO 205 colon
  TGI: > 50 µM
EKVX NSCLC
  TGI: > 50 µM
HCT-15 colon
  TGI: > 50 µM
MCF7 breast
  TGI: > 50 µM
NCI/ADR-RES ovarian
  TGI: > 50 µM
SF-295 CNS
  TGI: > 50 µM
SK-MEL-28 melanoma
  TGI: > 50 µM
SK-MEL-5 melanoma
  TGI: > 50 µM
TK-10 renal
  TGI: > 50 µM
